Data as given in patent US20230233566A1, “INHIBITION OF BMI1 ELIMINATES CANCER STEM CELLS AND ACTIVATES ANTITUMOR IMMUNITY” (The Regents of the University of California, priority 2020, published 2023).

Legend:
pIRF3 = pIRF3 immunofluorescent staining in 4NQO-induced HNSCC; set-up: species or system mouse; conditions: 4NQO-induced HNSCC in vivo
cytosolic dsDNA = test: Cytosolic dsDNA staining (PicoGreen/MitoTracker); format: cell-based, human; conditions: SCC23 and SCC1 cells
Procedure: Following the treatment, SCC23 and SCC1 cells were incubated with culture media containing PicoGreen (dsDNA stain, 200-fold dilution, Thermo Fisher Scientific, Cat #P11496) and MitoTracker ([…], 100 nM, Thermo Fisher Scientific, Cat #M7512). One hour after incubation, cells were fixed with 4% paraformaldehyde for 10 min. Cells were then washed twice with PBS and stained with DAPI (Sigma-Aldrich, Cat #D9542) and mounted with SlowFade Antifade Reagents (Thermo Fisher Scientific, Cat #536937). Staining was imaged and assessed using a Leica SP5X laser scanning confocal microscope.

[1] = system: neutrophils and MDSCs (Gr1+CD11b+ cells); test: Immunofluorescent staining of neutrophils and MDSCs in HNSCC; format: in vivo, mouse; conditions: 4NQO-induced HNSCC

COc1cc(Br)c(Nc2nc(-c3c(C)nc4ncccn34)cs2)c(Br)c1 [PTC209, N-(2,6-dibromo-4-methoxyphenyl)-4-(2-methylimidazo[1,2-a]pyrimidin-3-yl)thiazol-2-amine]
pIRF3 in HNSCC (pIRF3): significantly increased | accumulation of cytosolic dsDNA (cytosolic dsDNA): induced the accumulation of cytosolic dsDNA | percentage of neutrophils and MDSCs (Gr1+CD11b+ cells) in HNSCC [1]: does not significantly change the percentage of neutrophils and MDSCs (Gr1^+CD11b^+ cells) in HNSCC
